Assay results taken from paper PMC5716539, “The acute glucose lowering effect of specific GPR120 activation in mice is mainly driven by glucagon-like peptide 1” (PLoS ONE, 2017).

Assays:
GPR120 null mice [1] = experiment: IVGTT in female GPR120 null mice; type: in vivo, mouse
Procedure: Lean female mice (body weight 20–25 g), were randomized on body weight and fasted 4 hours prior to the IVGTT. Metabolex-36 (100 mg/kg) was administered orally 60 min and AZ13581837 (35mg/kg) 30 min before the IVGTT ([…]). Control mice were given vehicle (0.5% HPMC, 0.1% Tween-80) at corresponding time points. The specificity of AZ13581837 was examined in IVGTT in GPR120 null mice. GPR120 agonist doses were selected to reach plasma levels of at least 10 times over the in vitro EC50 value to achieve maximal activation of GPR120 (S2 Appendix). Thirty minutes prior to the glucose load, the mice were anaesthetised (20 mg/kg fluanisone/0.8 mg/kg fentanyl (Hypnorm®, Janssen, Beerse, Belgium) and 10 mg/kg midazolam (Dormicum®, Hoffman-LaRoche, Basel, Switzerland)) to allow for rapid blood sampling. The mice were kept at a heating pad to maintain body temperature.
In the IVGTT, the acute insulin response (AIR) was calculated as the mean of suprabasal 1 and 5 min values, and the glucose elimination was quantified using the glucose elimination constant (KG) calculated as the slope of the logarithmic transformation of circulating glucose between 1 and 20 min after the glucose bolus. Multiple comparisons between the different groups were performed by one-way ANOVA. Tukey’s or Bonferroni’s post hoc test were used to calculate statistical differences between the groups. […]

lean mice = experiment: Plasma total GLP-1 levels after oral administration in mice; type: in vivo, mouse; conditions: 30 min after AZ13581837 or 60 min after Metabolex-36, oral, vs respective control group
Procedure: In separate experiments, mice were pretreated with the GLP-1 receptor antagonist exendin 9–39 (30 nmol/kg, Bachem; intraperitoneally) alone or in combination with the GPR120 agonists, 15 min prior to the IVGTT. Insulin and glucose were measured 0, 1, 5, 10, 20 and 40 min after intravenous (iv) glucose administration. In separate groups of mice total GLP-1 levels were measured 60 min after oral administration of Metabolex-36 or 30 min after AZ13581837 and in corresponding vehicle (0.5% HPMC, 0.1% Tween-80) dosed mice. Blood samples were collected in EDTA coated tubes, centrifuged at 10000xg for 4 min, and plasma was separated and stored frozen until analyzed.
Glucose was measured using a glucometer (AccuCheck, Bayer). Circulating hormones were measured using specific ELISA kits; insulin (ultra-sensitive mouse insulin, Crystal Chemistry), and total and active GLP-1 (Millipore).

[2] = test system: dispersed wt mouse islets cell; experiment: cAMP production in dispersed wild type mouse islet cells; type: cell-based; conditions: 10 μM agonist, vs control cells
Procedure: Mouse islets were isolated from pancreas by collagenase digestion, handpicked under microscope following multiple washing steps and dispersed to single cells using TrypLE Express (Gibco). The dispersed islet cells (20 000 cells/well) were incubated with the GPR120 agonists for 30 min in 96-well black plates (Corning) at 37°C in Krebs ringer phosphate Hepes buffer, pH 7.4, with 11 mM Glucose, 0.1% BSA and 0.5 mM 3-isobutyl-1-methylxanthine followed by addition of d2-labeled cAMP and anti-cAMP Cryptate in conjugation and lysis buffer (Cisbio). Produced cAMP was detected with homogenous time resolved fluorescence (HTRF) (λex = 340 nm, λem = 665 and 615 nm) using a Pherastar (BMG Labtech).

mouse GPR120 = biological target: T1, mouse GPR120 (Mus musculus, UniProt Q7TMA4); experiment: cAMP production in CHO cells overexpressing mouse GPR120; type: cell-based; conditions: data not shown
T1 construct: expressed in transfected cells
T1 sequence (Q7TMA4 1-361): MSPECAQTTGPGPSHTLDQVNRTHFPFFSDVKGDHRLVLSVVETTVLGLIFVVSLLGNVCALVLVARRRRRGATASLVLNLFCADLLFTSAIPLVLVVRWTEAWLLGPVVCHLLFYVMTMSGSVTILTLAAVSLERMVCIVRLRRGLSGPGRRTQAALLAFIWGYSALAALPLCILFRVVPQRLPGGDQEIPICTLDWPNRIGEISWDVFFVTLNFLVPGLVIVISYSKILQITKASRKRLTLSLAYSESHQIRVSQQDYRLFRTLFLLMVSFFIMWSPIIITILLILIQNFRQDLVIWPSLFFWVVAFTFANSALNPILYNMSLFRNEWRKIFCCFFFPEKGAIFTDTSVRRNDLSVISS

mouse islets = test system: mouse islets; set-up: method as in PMID 24663807; conditions: cited from earlier work
GPR120 null mice [3] = experiment: OGTT in male GPR120 null mice; type: in vivo, mouse
Procedure: OGTT tests were performed in lean male mice (body weight 27-32g), randomized on body weight, fasted for 16 hours. An oral glucose load (2 g/kg) was administered 30 min (AZ13581837, 7 and 18 mg/kg) or 60 min (Metabolex-36, 10, 30 and 100 mg/kg) after oral dosing with the GPR120 agonists and blood glucose was measured at -30, 0, 10, 25, 40, 60 and 90 min post glucose administration. The specificity of Metabolex-36 was examined in male GPR120 null mice. The administration time for the GPR120 agonists was optimized depending on the pharmacokinetic profile of each compound, in order to maximize the plasma exposure of the compounds during the experiments.

| Compound | Glucose elimination in GPR120 null mice (GPR120 null mice [1]; IVGTT) | Acute insulin secretion in GPR120 null mice (GPR120 null mice [1]; vs vehicle of same genotype) | Total GLP-1 levels (lean mice) | cAMP production in dispersed wt mouse islet cells [2] | Activation or inhibition of cAMP production in CHO cells overexpressing mouse GPR120 (mouse GPR120) | Somatostatin secretion in vitro from mouse islets (mouse islets) | Effect on oral glucose tolerance in GPR120 null mice (GPR120 null mice [3]) |
| --- | --- | --- | --- | --- | --- | --- | --- |
| C#Cc1cc(Oc2cccnc2)cc(N2Cc3ccccc3S2(=O)=O)c1 [AZ13581837, 2-(3-ethynyl-5-(3-pyridyloxy)phenyl)-3H-1,2-benzothiazole 1,1-dioxide] | no effect | no effect | significant increase | significantly reduced cAMP production | unable to detect |  |  |
| 3-(3,5-difluoro-4-((3-methyl-1-phenyl-1H-pyrazol-5-yl)methoxy)phenyl)-2-methylpropanoic acid [Metabolex-36] |  |  | significant increase | significantly reduced cAMP production | unable to detect | reduce somatostatin secretion | no effect |
